Source: patent US12492181B2, “Gem-disubstituted piperidine melanocortin subtype-2 receptor (MC2R) antagonists and uses thereof” (Crinetics Pharmaceuticals, Inc., priority 2019, dated 2025)

Target: T1, hMC2 receptor (crude hMC2R membranes from CRE-bla-CHO-K1 cells stably expressing hMC2 receptor and hMRAP accessory protein) (Homo sapiens, UniProt Q01718)
T1 construct: crude membrane fractions
Test: hMC2 membrane binding assay ([125I]ACTH (1-39) Tyr23, SPA)
Settings: displacement of 0.2 nM [125I]ACTH (1-39) Tyr23 from hMC2R membranes, 1.5 hours at room temperature; read-out: MC2R binding potency
Method in brief: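 Ki values come from non-linear regression of SPA scintillation counts, with compounds displacing [125I]ACTH(1-39) Tyr23. Membranes come from CRE-bla-CHO-K1 cells stably expressing hMC2 receptor together with hMRAP. They are preincubated with WGA-coated PVT SPA beads in 50 mM HEPES pH 7.4 with 0.20% BSA, Mg2+, Ca2+ and protease inhibitors.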

T1 sequence (Q01718 whole entry): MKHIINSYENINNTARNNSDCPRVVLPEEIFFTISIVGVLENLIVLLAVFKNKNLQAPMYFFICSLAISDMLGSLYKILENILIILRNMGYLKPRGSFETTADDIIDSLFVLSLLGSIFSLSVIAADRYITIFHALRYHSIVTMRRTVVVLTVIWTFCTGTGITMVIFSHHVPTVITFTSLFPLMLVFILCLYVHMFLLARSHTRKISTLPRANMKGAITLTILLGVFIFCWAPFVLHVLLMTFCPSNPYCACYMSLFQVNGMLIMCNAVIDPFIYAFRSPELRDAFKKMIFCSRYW
T1 sequence (Q8TCY5 whole entry partner): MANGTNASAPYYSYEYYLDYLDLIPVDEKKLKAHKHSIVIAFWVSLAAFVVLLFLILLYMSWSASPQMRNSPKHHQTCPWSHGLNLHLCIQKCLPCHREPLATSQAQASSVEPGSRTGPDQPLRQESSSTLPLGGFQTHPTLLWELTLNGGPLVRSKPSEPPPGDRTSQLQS

Row | SMILES | Ki [nM]
1 | CCOc1ncccc1-c1ncc(C2(C(=O)NCCN(C)C)CCN(c3ccc(C(F)(F)F)cc3F)CC2)cc1F [Compound 1-284, N-[2-(dimethylamino)ethyl]-4-{2′-ethoxy-3-fluoro-[2,3′-bipyridin]-5-yl}-1-[2-fluoro-4-(trifluoromethyl)phenyl]piperidine-4-carboxamide] | < 10
2 | CCOc1ncccc1-c1ccc(C2(C(=O)NCCN)CCN(c3ccc(C(F)(F)F)cc3C#N)CC2)cn1 [Compound 1-13, N-(2-aminoethyl)-1-[2-cyano-4-(trifluoromethyl)phenyl]-4-{2′-ethoxy-[2,3′-bipyridin]-5-yl}piperidine-4-carboxamide] | < 10
3 | CCOc1ncccc1-c1ccc(C2(NC(=O)[C@H]3CCNC3)CCN(c3ccc(C(F)(F)F)cc3C#N)CC2)cn1 [Compound 2-8, (3S)—N-{1-[2-cyano-4-(trifluoromethyl)phenyl]-4-{2′-ethoxy-[2,3′-bipyridin]-5-yl}piperidin-4-yl}pyrrolidine-3-carboxamide] | < 10
4 | CN(C)C1(CNC(=O)C2(c3ccc(-c4cccn4C)nc3)CCN(c3ccc(C(F)(F)F)cc3C#N)CC2)CC1 [Compound 1-263, 1-[2-cyano-4-(trifluoromethyl)phenyl]-N-{[1-(dimethylamino)cyclopropyl]methyl}-4-[6-(1-methyl-1H-pyrrol-2-yl)pyridin-3-yl]piperidine-4-carboxamide] | 10 to 100
5 | CCOc1ncccc1-c1ccc(C2(C(=O)NC[C@H](C)N)CCN(c3ccc(C(F)(F)F)cc3C#N)CC2)cc1 [Compound 1-6, N-[(2S)-2-aminopropyl]-1-[2-cyano-4-(trifluoromethyl)phenyl]-4-[4-(2-ethoxypyridin-3-yl)phenyl]piperidine-4-carboxamide] | 10 to 100
6 | CCOc1ncccc1-c1ccc(C2(C(=O)N[C@@H]3CCN(C)C3)CCN(c3ccc(C(F)(F)F)nc3C#N)CC2)cc1 [Compound 1-23, 1-[2-cyano-6-(trifluoromethyl)pyridin-3-yl]-4-[4-(2-ethoxypyridin-3-yl)phenyl]-N-[(3R)-1-methylpyrrolidin-3-yl]piperidine-4-carboxamide] | < 10
7 | CCOc1ncccc1-c1ccc(C2(C(=O)NC3CN(C)C3)CCN(c3ccc(C(F)(F)F)cc3C#N)CC2)cn1 [Compound 1-19, 1-[2-cyano-4-(trifluoromethyl)phenyl]-4-{2′-ethoxy-[2,3′-bipyridin]-5-yl}-N-(1-methylazetidin-3-yl)piperidine-4-carboxamide] | < 10
8 | CN1CC[C@@H](OC(=O)NC2(c3ccc(-c4cccn4C)nc3)CCN(c3ccc(C(F)(F)F)cc3C#N)CC2)C1 [Compound 2-41, (3R)-1-methylpyrrolidin-3-yl N-{1-[2-cyano-4-(trifluoromethyl)phenyl]-4-[6-(1-methyl-1H-pyrrol-2-yl)pyridin-3-yl]piperidin-4-yl}carbamate] | < 10
9 | CCOc1ncccc1-c1ccc(C2(C(=O)NC[C@H](C)N)CCN(c3ccc(C(F)(F)F)cc3C#N)CC2)cn1 [Compound 1-16, N-[(2S)-2-aminopropyl]-1-[2-cyano-4-(trifluoromethyl)phenyl]-4-{2′-ethoxy-[2,3′-bipyridin]-5-yl}piperidine-4-carboxamide] | < 10
10 | CN1CC[C@H](NC(=O)C2(c3cnc(-c4cccn4C)c(F)c3)CCN(c3ccc(C(F)(F)F)cc3Cl)CC2)C1 [Compound 1-162, 1-[2-chloro-4-(trifluoromethyl)phenyl]-4-[5-fluoro-6-(1-methyl-1H-pyrrol-2-yl)pyridin-3-yl]-N-[(3S)-1-methylpyrrolidin-3-yl]piperidine-4-carboxamide] | < 10
11 | CCOc1ncccc1-c1ccc(C2(NCCNC)CCN(c3ccc(C(F)(F)F)cc3C#N)CC2)cn1 [Compound 2-15, 2-(4-{2′-ethoxy-[2,3′-bipyridin]-5-yl}-4-{[2-(methylamino)ethyl]amino}piperidin-1-yl)-5-(trifluoromethyl)benzonitrile] | 10 to 100
12 | COc1ncccc1-c1ccc(C2(C(=O)N[C@H]3CCN(C)C3)CCN(c3ccc(C(F)(F)F)cc3C#N)CC2)cn1 [Compound 1-179, 1-[2-cyano-4-(trifluoromethyl)phenyl]-4-{2′-methoxy-[2,3′-bipyridin]-5-yl}-N-[(3S)-1-methylpyrrolidin-3-yl]piperidine-4-carboxamide] | < 10
13 | COc1ncccc1-c1ncc(C2(C(=O)NCCN(C)C)CCN(c3ccc(C(F)(F)F)cc3F)CC2)cc1F [Compound 1-300, N-[2-(dimethylamino)ethyl]-4-{3-fluoro-2′-methoxy-[2,3′-bipyridin]-5-yl}-1-[2-fluoro-4-(trifluoromethyl)phenyl]piperidine-4-carboxamide] | < 10
14 | CCOc1ncccc1-c1ccc(C2(C(=O)NC[C@@H](N)CO)CCN(c3ccc(C(F)(F)F)cc3C#N)CC2)cn1 [Compound 1-17, N-[(2R)-2-amino-3-hydroxypropyl]-1-[2-cyano-4-(trifluoromethyl)phenyl]-4-{2′-ethoxy-[2,3′-bipyridin]-5-yl}piperidine-4-carboxamide] | < 10
15 | CCOc1ncccc1-c1ccc(C2(C(=O)NCCNC)CCN(c3ccc(C(F)(F)F)cc3Cl)CC2)cn1 [Compound 1-225, 1-[2-chloro-4-(trifluoromethyl)phenyl]-4-{2′-ethoxy-[2,3′-bipyridin]-5-yl}-N-[2-(methylamino)ethyl]piperidine-4-carboxamide] | < 10
16 | CN1CC(CNC(=O)C2(c3ccc(-c4cccn4C)nc3)CCN(c3ccc(C(F)(F)F)cc3C#N)CC2)C1 [Compound 1-220, 1-[2-cyano-4-(trifluoromethyl)phenyl]-4-[6-(1-methyl-1H-pyrrol-2-yl)pyridin-3-yl]-N-[(1-methylazetidin-3-yl)methyl]piperidine-4-carboxamide] | < 10
17 | COc1ccccc1-c1ccc(C2(C(=O)NC[C@@H]3CN(C)CCO3)CCN(c3ccc(C(F)(F)F)cc3C#N)CC2)cn1 [Compound 1-330, 1-[2-cyano-4-(trifluoromethyl)phenyl]-4-[6-(2-methoxyphenyl)pyridin-3-yl]-N-{[(2R)-4-methylmorpholin-2-yl]methyl}piperidine-4-carboxamide] | 10 to 100
18 | CCOc1ccccc1-c1ncc(C2(C(=O)NCCN(C)C)CCN(c3ccc(C(F)(F)F)cc3F)CC2)cc1F [Compound 1-289, N-[2-(dimethylamino)ethyl]-4-[6-(2-ethoxyphenyl)-5-fluoropyridin-3-yl]-1-[2-fluoro-4-(trifluoromethyl)phenyl]piperidine-4-carboxamide] | < 10
19 | CCOc1ncccc1-c1ccc(C2(C(=O)NC[C@H](CO)N(C)C)CCN(c3ccc(C(F)(F)F)cc3C#N)CC2)cn1 [Compound 1-45, 1-[2-cyano-4-(trifluoromethyl)phenyl]-N-[(2R)-2-(dimethylamino)-3-hydroxypropyl]-4-{2′-ethoxy-[2,3′-bipyridin]-5-yl}piperidine-4-carboxamide] | < 10
20 | Cc1oncc1-c1ccc(C2(C(=O)N[C@@H]3CCN(C)C3)CCN(c3ccc(C(F)(F)F)cc3C#N)CC2)cn1 [Compound 1-157, 1-[2-cyano-4-(trifluoromethyl)phenyl]-4-[6-(5-methyl-1,2-oxazol-4-yl)pyridin-3-yl]-N-[(3R)-1-methylpyrrolidin-3-yl]piperidine-4-carboxamide] | 10 to 100
21 | CN1CC[C@@H](NC(=O)C2(c3ccc(-c4cccnc4OC(F)F)nc3)CCN(c3ccc(C(F)(F)F)cc3C#N)CC2)C1 [Compound 1-85, 1-[2-cyano-4-(trifluoromethyl)phenyl]-4-[2′-(difluoromethoxy)-[2,3′-bipyridin]-5-yl]-N-[(3R)-1-methylpyrrolidin-3-yl]piperidine-4-carboxamide] | < 10
22 | CCOc1ncccc1-c1ncc(C2(C(=O)NCCN(C)C)CCN(c3ccc(C(F)(F)F)cc3Cl)CC2)cc1F [Compound 1-288, 1-[2-chloro-4-(trifluoromethyl)phenyl]-N-[2-(dimethylamino)ethyl]-4-{2′-ethoxy-3-fluoro-[2,3′-bipyridin]-5-yl}piperidine-4-carboxamide] | < 10
23 | CCOc1ncccc1-c1ccc(C2(C(=O)N[C@H]3CCN(C)C3)CCN(c3ccc(C(F)(F)F)cc3C#N)CC2)nn1 [Compound 1-56, 1-[2-cyano-4-(trifluoromethyl)phenyl]-4-[6-(2-ethoxypyridin-3-yl)pyridazin-3-yl]-N-[(3S)-1-methylpyrrolidin-3-yl]piperidine-4-carboxamide] | < 10
24 | CCOC(=O)N1CC[C@H](NC(=O)C2(c3ccc(-c4cccn4C)nc3)CCN(c3ccc(C(F)(F)F)cc3C#N)CC2)C1 [Compound 1-184, ethyl (3S)-3-{1-[2-cyano-4-(trifluoromethyl)phenyl]-4-[6-(1-methyl-1H-pyrrol-2-yl)pyridin-3-yl]piperidine-4-amido}pyrrolidine-1-carboxylate] | 100 to 1000
25 | CN1CC[C@@H](NC(=O)C2(c3ccc(-c4ccc(C#N)n4C)nc3)CCN(c3ccc(C(F)(F)F)cc3C#N)CC2)C1 [Compound 1-153, 4-[6-(5-cyano-1-methyl-1H-pyrrol-2-yl)pyridin-3-yl]-1-[2-cyano-4-(trifluoromethyl)phenyl]-N-[(3R)-1-methylpyrrolidin-3-yl]piperidine-4-carboxamide] | 10 to 100
26 | CNCCCNC(=O)C1(c2cnc(-c3ccccc3OC)c(F)c2)CCN(c2ccc(C(F)(F)F)cc2C#N)CC1 [Compound 1-197, 1-[2-cyano-4-(trifluoromethyl)phenyl]-4-[5-fluoro-6-(2-methoxyphenyl)pyridin-3-yl]-N-[3-(methylamino)propyl]piperidine-4-carboxamide] | < 10
27 | CNCCNC(=O)C1(c2cnc(-c3cccn3C)c(F)c2)CCN(c2ccc(C(F)(F)F)cc2Cl)CC1 [Compound 1-310, 1-[2-chloro-4-(trifluoromethyl)phenyl]-4-[5-fluoro-6-(1-methyl-1H-pyrrol-2-yl)pyridin-3-yl]-N-[2-(methylamino)ethyl]piperidine-4-carboxamide] | < 10
